Laboratory results taken from US4115541A (priority 1975, dated 1978).

Tests used:
[1] = Distribution of 99mTc-Sn-AEDP and 85Sr in rabbits, carrier effect of AEDP (Example 4); assay type: in vivo, rabbit; conditions: 2 Hrs.
Experimental: Adult New Zealand albino rabbits having an average weight of 3.8 kg were utilized. Strontium-85 was employed as a standard for comparison. […] Each dosage is contained in a volume of 1 ml.
The animals were sacrificed serially from 1 to 24 hours after injection and the activities in major organs were determined by counting multiple samples from each organ in a scintillation well counter (the technetium-99m counts were corrected for the Compton contributions from the strontium-85 activity in the technetium-99m energy window). Multiple samples were counted from the tibia, femur, spine and pelvic bones; the total activity in the skeleton was estimated by assuming the whole skeleton consisted of equal proportions by weight of tibia, spine, femur and pelvis and that the skeletal mass was 10% of the body weight. The red marrow was sampled from the femur and the total marrow was assumed to be 2.2% of the total body weight. Similarly, blood volume was assumed to be 7% and the skeletal muscle 43% of the body weight. The whole liver and both kidneys were weighed and multiple samples from each were counted to measure the total activity in each organ.
In another series of experiments carried out as described in Example 2, the distribution of technetium 99m from its 99m-technetium-tin-methylene diphosphonate complex was determined in albino rabbits, again in comparison with strontium-85.
The distribution of technetium 99m from its 99m technetium-tin-1-amino-ethane-1,1-diphosphonate complex was determined as in Example 3 and compared with the distribution of strontium-85.

[2] = physical; cited from earlier work

99m technetium-tin-1-amino-ethane-1,1-diphosphonate complex [^99m Tc-Sn-AEDP]
Blood, % Dose in Whole Organ ([1]; AEDP 0.01 mg/kg): 1.18 % Dose | Blood, % dose/1% body weight ([1]; AEDP 0.01 mg/kg): 0.168 % Dose/1% Body weight | Bone Ave, % Dose/1% Body weight ([1]; AEDP 0.01 mg/kg): 7.60 % Dose/1% Body weight | Femur, % dose/1% body weight ([1]; AEDP 0.01 mg/kg): 7.54 % Dose/1% Body weight | Kidneys, % Dose in Whole Organ ([1]; AEDP 0.01 mg/kg): 1.59 % Dose | Kidneys, % dose/1% body weight ([1]; AEDP 0.01 mg/kg): 2.72 % Dose/1% Body weight | Liver, % Dose in Whole Organ ([1]; AEDP 0.01 mg/kg): 1.69 % Dose | Liver, % dose/1% body weight ([1]; AEDP 0.01 mg/kg): 0.617 % Dose/1% Body weight | Marrow, % Dose in Whole Organ ([1]; AEDP 0.01 mg/kg): 0.657 % Dose | Marrow, % dose/1% body weight ([1]; AEDP 0.01 mg/kg): 0.300 % Dose/1% Body weight | Muscle, % Dose in Whole Organ ([1]; AEDP 0.01 mg/kg): 0.988 % Dose | Muscle, % dose/1% body weight ([1]; AEDP 0.01 mg/kg): 0.037 % Dose/1% Body weight | Pelvis, % dose/1% body weight ([1]; AEDP 0.01 mg/kg): 8.53 % Dose/1% Body weight | Ratio of 99mTc/85Sr, Ave Bone ([1]; AEDP 0.01 mg/kg): 0.735 | Ratio of 99mTc/85Sr, Blood ([1]; AEDP 0.01 mg/kg): 0.406 | Ratio of 99mTc/85Sr, Femur ([1]; AEDP 0.01 mg/kg): 0.720 | Ratio of 99mTc/85Sr, Kidney ([1]; AEDP 0.01 mg/kg): 4.99 | Ratio of 99mTc/85Sr, Liver ([1]; AEDP 0.01 mg/kg): 3.00 | Ratio of 99mTc/85Sr, Marrow ([1]; AEDP 0.01 mg/kg): 1.27 | Ratio of 99mTc/85Sr, Muscle ([1]; AEDP 0.01 mg/kg): 0.338 | Ratio of 99mTc/85Sr, Pelvis ([1]; AEDP 0.01 mg/kg): 0.794 | Ratio of 99mTc/85Sr, Spine ([1]; AEDP 0.01 mg/kg): 0.689 | Ratio of 99mTc/85Sr, Tibia ([1]; AEDP 0.01 mg/kg): 0.710 | Spine, % dose/1% body weight ([1]; AEDP 0.01 mg/kg): 6.20 % Dose/1% Body weight | Tc/Sr ratio (Table 4) ([1]; AEDP 0.01 mg/kg): 0.736 | Tibia, % dose/1% body weight ([1]; AEDP 0.01 mg/kg): 8.13 % Dose/1% Body weight | Urine, % Dose ([1]; AEDP 0.01 mg/kg): 48.39 % Dose | W. Femur, % Dose in Whole Organ ([1]; AEDP 0.01 mg/kg): 2.34 % Dose | W. Tibia, % Dose in Whole Organ ([1]; AEDP 0.01 mg/kg): 1.96 % Dose | Blood, % Dose in Whole Organ ([1]; AEDP 0.05 mg/kg): 1.01 % Dose | Blood, % dose/1% body weight ([1]; AEDP 0.05 mg/kg): 0.144 % Dose/1% Body weight | Bone Ave, % Dose/1% Body weight ([1]; AEDP 0.05 mg/kg): 8.39 % Dose/1% Body weight | Femur, % dose/1% body weight ([1]; AEDP 0.05 mg/kg): 8.63 % Dose/1% Body weight | Kidneys, % Dose in Whole Organ ([1]; AEDP 0.05 mg/kg): 1.13 % Dose | Kidneys, % dose/1% body weight ([1]; AEDP 0.05 mg/kg): 1.83 % Dose/1% Body weight | Liver, % Dose in Whole Organ ([1]; AEDP 0.05 mg/kg): 0.806 % Dose | Liver, % dose/1% body weight ([1]; AEDP 0.05 mg/kg): 0.176 % Dose/1% Body weight | Marrow, % Dose in Whole Organ ([1]; AEDP 0.05 mg/kg): 0.549 % Dose | Marrow, % dose/1% body weight ([1]; AEDP 0.05 mg/kg): 0.250 % Dose/1% Body weight | Muscle, % Dose in Whole Organ ([1]; AEDP 0.05 mg/kg): 1.20 % Dose | Muscle, % dose/1% body weight ([1]; AEDP 0.05 mg/kg): 0.028 % Dose/1% Body weight | Pelvis, % dose/1% body weight ([1]; AEDP 0.05 mg/kg): 7.82 % Dose/1% Body weight | Ratio of 99mTc/85Sr, Ave Bone ([1]; AEDP 0.05 mg/kg): 0.683 | Ratio of 99mTc/85Sr, Blood ([1]; AEDP 0.05 mg/kg): 0.409 | Ratio of 99mTc/85Sr, Femur ([1]; AEDP 0.05 mg/kg): 0.687 | Ratio of 99mTc/85Sr, Kidney ([1]; AEDP 0.05 mg/kg): 3.30 | Ratio of 99mTc/85Sr, Liver ([1]; AEDP 0.05 mg/kg): 1.32 | Ratio of 99mTc/85Sr, Marrow ([1]; AEDP 0.05 mg/kg): 1.18 | Ratio of 99mTc/85Sr, Muscle ([1]; AEDP 0.05 mg/kg): 0.236 | Ratio of 99mTc/85Sr, Pelvis ([1]; AEDP 0.05 mg/kg): 0.684 | Ratio of 99mTc/85Sr, Spine ([1]; AEDP 0.05 mg/kg): 0.675 | Ratio of 99mTc/85Sr, Tibia ([1]; AEDP 0.05 mg/kg): 0.681 | Spine, % dose/1% body weight ([1]; AEDP 0.05 mg/kg): 7.80 % Dose/1% Body weight | Tc/Sr ratio (Table 4) ([1]; AEDP 0.05 mg/kg): 0.680 | Tibia, % dose/1% body weight ([1]; AEDP 0.05 mg/kg): 9.30 % Dose/1% Body weight | Urine, % Dose ([1]; AEDP 0.05 mg/kg): 44.21 % Dose | W. Femur, % Dose in Whole Organ ([1]; AEDP 0.05 mg/kg): 2.41 % Dose | W. Tibia, % Dose in Whole Organ ([1]; AEDP 0.05 mg/kg): 2.14 % Dose | Blood, % Dose in Whole Organ ([1]; AEDP 0.1 mg/kg): 0.96 % Dose | Blood, % dose/1% body weight ([1]; AEDP 0.1 mg/kg): 0.137 % Dose/1% Body weight | Bone Ave, % Dose/1% Body weight ([1]; AEDP 0.1 mg/kg): 7.51 % Dose/1% Body weight | Femur, % dose/1% body weight ([1]; AEDP 0.1 mg/kg): 7.93 % Dose/1% Body weight | Kidneys, % Dose in Whole Organ ([1]; AEDP 0.1 mg/kg): 0.913 % Dose | Kidneys, % dose/1% body weight ([1]; AEDP 0.1 mg/kg): 1.28 % Dose/1% Body weight | Liver, % Dose in Whole Organ ([1]; AEDP 0.1 mg/kg): 0.309 % Dose | Liver, % dose/1% body weight ([1]; AEDP 0.1 mg/kg): 0.083 % Dose/1% Body weight | Marrow, % Dose in Whole Organ ([1]; AEDP 0.1 mg/kg): 0.211 % Dose | Marrow, % dose/1% body weight ([1]; AEDP 0.1 mg/kg): 0.096 % Dose/1% Body weight | Muscle, % Dose in Whole Organ ([1]; AEDP 0.1 mg/kg): 1.46 % Dose | Muscle, % dose/1% body weight ([1]; AEDP 0.1 mg/kg): 0.034 % Dose/1% Body weight | Pelvis, % dose/1% body weight ([1]; AEDP 0.1 mg/kg): 6.24 % Dose/1% Body weight | Ratio of 99mTc/85Sr, Ave Bone ([1]; AEDP 0.1 mg/kg): 0.716 | Ratio of 99mTc/85Sr, Blood ([1]; AEDP 0.1 mg/kg): 0.409 | Ratio of 99mTc/85Sr, Femur ([1]; AEDP 0.1 mg/kg): 0.714 | Ratio of 99mTc/85Sr, Kidney ([1]; AEDP 0.1 mg/kg): 2.94 | Ratio of 99mTc/85Sr, Liver ([1]; AEDP 0.1 mg/kg): 0.490 | Ratio of 99mTc/85Sr, Marrow ([1]; AEDP 0.1 mg/kg): 0.621 | Ratio of 99mTc/85Sr, Muscle ([1]; AEDP 0.1 mg/kg): 0.205 | Ratio of 99mTc/85Sr, Pelvis ([1]; AEDP 0.1 mg/kg): 0.725 | Ratio of 99mTc/85Sr, Spine ([1]; AEDP 0.1 mg/kg): 0.705 | Ratio of 99mTc/85Sr, Tibia ([1]; AEDP 0.1 mg/kg): 0.721 | Spine, % dose/1% body weight ([1]; AEDP 0.1 mg/kg): 7.36 % Dose/1% Body weight | Tc/Sr ratio (Table 4) ([1]; AEDP 0.1 mg/kg): 0.717 | Tibia, % dose/1% body weight ([1]; AEDP 0.1 mg/kg): 8.50 % Dose/1% Body weight | Urine, % Dose ([1]; AEDP 0.1 mg/kg): 38.8 % Dose | W. Femur, % Dose in Whole Organ ([1]; AEDP 0.1 mg/kg): 2.38 % Dose | W. Tibia, % Dose in Whole Organ ([1]; AEDP 0.1 mg/kg): 2.18 % Dose | Blood, % Dose in Whole Organ ([1]; AEDP 0.5 mg/kg): 1.38 % Dose | Blood, % dose/1% body weight ([1]; AEDP 0.5 mg/kg): 0.197 % Dose/1% Body weight | Bone Ave, % Dose/1% Body weight ([1]; AEDP 0.5 mg/kg): 6.96 % Dose/1% Body weight | Femur, % dose/1% body weight ([1]; AEDP 0.5 mg/kg): 6.59 % Dose/1% Body weight | Kidneys, % Dose in Whole Organ ([1]; AEDP 0.5 mg/kg): 1.11 % Dose | Kidneys, % dose/1% body weight ([1]; AEDP 0.5 mg/kg): 2.11 % Dose/1% Body weight | Liver, % Dose in Whole Organ ([1]; AEDP 0.5 mg/kg): 0.216 % Dose | Liver, % dose/1% body weight ([1]; AEDP 0.5 mg/kg): 0.079 % Dose/1% Body weight | Marrow, % Dose in Whole Organ ([1]; AEDP 0.5 mg/kg): 0.23 % Dose | Marrow, % dose/1% body weight ([1]; AEDP 0.5 mg/kg): 0.104 % Dose/1% Body weight | Muscle, % Dose in Whole Organ ([1]; AEDP 0.5 mg/kg): 0.883 % Dose | Muscle, % dose/1% body weight ([1]; AEDP 0.5 mg/kg): 0.021 % Dose/1% Body weight | Pelvis, % dose/1% body weight ([1]; AEDP 0.5 mg/kg): 7.93 % Dose/1% Body weight | Ratio of 99mTc/85Sr, Ave Bone ([1]; AEDP 0.5 mg/kg): 0.644 | Ratio of 99mTc/85Sr, Blood ([1]; AEDP 0.5 mg/kg): 0.280 | Ratio of 99mTc/85Sr, Femur ([1]; AEDP 0.5 mg/kg): 0.628 | Ratio of 99mTc/85Sr, Kidney ([1]; AEDP 0.5 mg/kg): 2.47 | Ratio of 99mTc/85Sr, Liver ([1]; AEDP 0.5 mg/kg): 0.459 | Ratio of 99mTc/85Sr, Marrow ([1]; AEDP 0.5 mg/kg): 0.500 | Ratio of 99mTc/85Sr, Muscle ([1]; AEDP 0.5 mg/kg): 0.140 | Ratio of 99mTc/85Sr, Pelvis ([1]; AEDP 0.5 mg/kg): 0.692 | Ratio of 99mTc/85Sr, Spine ([1]; AEDP 0.5 mg/kg): 0.614 | Ratio of 99mTc/85Sr, Tibia ([1]; AEDP 0.5 mg/kg): 0.632 | Spine, % dose/1% body weight ([1]; AEDP 0.5 mg/kg): 6.05 % Dose/1% Body weight | Tc/Sr ratio (Table 4) ([1]; AEDP 0.5 mg/kg): 0.645 | Tibia, % dose/1% body weight ([1]; AEDP 0.5 mg/kg): 7.27 % Dose/1% Body weight | Urine, % Dose ([1]; AEDP 0.5 mg/kg): 48.85 % Dose | W. Femur, % Dose in Whole Organ ([1]; AEDP 0.5 mg/kg): 1.74 % Dose | W. Tibia, % Dose in Whole Organ ([1]; AEDP 0.5 mg/kg): 1.55 % Dose

[18FH] [fluorine-18]
half-life (radionuclide) [2]: 1.83 h

[99Tc] [technitium-99m]
half-life (radionuclide) [2]: 6 h
